Measured values published in ChEMBL document CHEMBL1201862, “PubChem BioAssay data set” (2004).
Active and inactive are the calls of the source.

Assays:
[1] = target: T1, Calpain-2 catalytic subunit (Sus scrofa, UniProt P43367); assay: pig calpain II inhibitor potency, dose response, biochemical, fluorogenic peptide substrate (AID 1420); format: functional
T1 sequence (P43367 whole entry): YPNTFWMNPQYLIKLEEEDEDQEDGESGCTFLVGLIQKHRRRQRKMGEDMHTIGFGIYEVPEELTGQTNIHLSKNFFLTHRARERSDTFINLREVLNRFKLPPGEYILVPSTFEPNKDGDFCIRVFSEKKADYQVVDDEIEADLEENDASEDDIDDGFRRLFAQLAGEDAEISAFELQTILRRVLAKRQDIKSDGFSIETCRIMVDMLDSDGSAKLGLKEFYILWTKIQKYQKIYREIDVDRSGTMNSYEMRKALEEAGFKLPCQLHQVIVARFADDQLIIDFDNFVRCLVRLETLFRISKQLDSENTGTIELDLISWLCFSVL

Leucine aminopeptidase = target: T2, Leucine aminopeptidase (Plasmodium falciparum 3D7, UniProt Q8IL11); assay: P. falciparum M17LAP inhibitors, primary screen, biochemical, fluorogenic H-Leu-NHMec substrate, 1536-well (AID 1619); format: functional
T2 sequence (Q8IL11 whole entry): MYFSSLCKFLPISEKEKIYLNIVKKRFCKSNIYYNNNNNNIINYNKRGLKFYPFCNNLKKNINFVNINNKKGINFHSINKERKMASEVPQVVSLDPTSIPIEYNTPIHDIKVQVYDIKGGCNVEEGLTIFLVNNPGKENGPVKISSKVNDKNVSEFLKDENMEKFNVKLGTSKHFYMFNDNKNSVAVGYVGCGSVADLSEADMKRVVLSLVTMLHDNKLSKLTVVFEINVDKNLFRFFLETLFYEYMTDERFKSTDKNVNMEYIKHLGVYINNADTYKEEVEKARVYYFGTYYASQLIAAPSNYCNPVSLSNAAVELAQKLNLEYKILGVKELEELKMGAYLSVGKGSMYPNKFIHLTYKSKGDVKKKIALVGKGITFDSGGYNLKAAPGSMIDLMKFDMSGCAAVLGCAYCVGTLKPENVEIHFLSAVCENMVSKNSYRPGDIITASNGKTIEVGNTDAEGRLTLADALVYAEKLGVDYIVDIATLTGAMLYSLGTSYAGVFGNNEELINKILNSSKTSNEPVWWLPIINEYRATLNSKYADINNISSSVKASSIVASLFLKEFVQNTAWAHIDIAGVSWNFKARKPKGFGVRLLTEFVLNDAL

Cytochrome P450 2C19 = Cytochrome P450 2C19 (Homo sapiens, UniProt P33261); assay: Cytochrome panel assay with activity outcomes. Panel member name: p450-cyp2c19 Compounds with AC50 equal or less than 10 uM are considered active; format: functional; conditions: read-out: AC50
Cytochrome P450 2C19, sequence (P33261 whole entry): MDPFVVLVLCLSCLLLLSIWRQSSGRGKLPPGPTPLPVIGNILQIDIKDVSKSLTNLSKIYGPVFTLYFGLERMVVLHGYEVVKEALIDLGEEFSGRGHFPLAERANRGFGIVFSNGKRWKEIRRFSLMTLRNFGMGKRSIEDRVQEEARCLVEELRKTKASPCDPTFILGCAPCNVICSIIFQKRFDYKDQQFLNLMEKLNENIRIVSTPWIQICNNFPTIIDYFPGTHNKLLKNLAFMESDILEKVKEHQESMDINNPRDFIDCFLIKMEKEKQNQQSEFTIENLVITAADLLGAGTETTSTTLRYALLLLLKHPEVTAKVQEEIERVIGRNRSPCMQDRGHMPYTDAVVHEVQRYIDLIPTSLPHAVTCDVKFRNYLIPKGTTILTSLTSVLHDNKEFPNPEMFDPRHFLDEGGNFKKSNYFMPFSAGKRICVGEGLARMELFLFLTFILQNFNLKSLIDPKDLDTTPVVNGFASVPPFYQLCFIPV

Large T antigen = Large T antigen (Simian virus 40, UniProt P03070); format: functional, Betapolyomavirus macacae;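 note: Confirmatory-stage PubChem screen for compounds that inhibit SV40 T antigen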
Large T antigen, sequence (P03070 whole entry): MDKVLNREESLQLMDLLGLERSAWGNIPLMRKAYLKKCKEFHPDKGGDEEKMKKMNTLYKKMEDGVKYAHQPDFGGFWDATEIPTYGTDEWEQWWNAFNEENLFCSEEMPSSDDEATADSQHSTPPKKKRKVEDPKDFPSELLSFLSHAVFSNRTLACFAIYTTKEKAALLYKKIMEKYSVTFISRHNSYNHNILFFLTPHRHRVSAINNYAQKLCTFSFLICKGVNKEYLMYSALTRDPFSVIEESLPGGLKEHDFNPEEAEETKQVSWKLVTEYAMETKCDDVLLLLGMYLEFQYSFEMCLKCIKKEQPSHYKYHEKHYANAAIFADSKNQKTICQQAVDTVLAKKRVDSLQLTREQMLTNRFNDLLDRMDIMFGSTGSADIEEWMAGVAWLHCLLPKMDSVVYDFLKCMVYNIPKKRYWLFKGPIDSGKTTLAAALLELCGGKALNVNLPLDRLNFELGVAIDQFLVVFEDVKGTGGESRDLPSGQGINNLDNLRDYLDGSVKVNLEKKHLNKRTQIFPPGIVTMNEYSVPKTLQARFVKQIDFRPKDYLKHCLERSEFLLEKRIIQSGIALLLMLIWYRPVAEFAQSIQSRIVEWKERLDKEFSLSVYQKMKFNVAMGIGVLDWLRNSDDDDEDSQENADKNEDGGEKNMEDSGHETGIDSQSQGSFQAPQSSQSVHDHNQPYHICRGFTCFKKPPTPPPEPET

Cytochrome P450 2D6 = Cytochrome P450 2D6 (Homo sapiens, UniProt P10635);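 note: CYP2D6 member of a cytochrome P450 panel assay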
Cytochrome P450 2D6, sequence (P10635 whole entry): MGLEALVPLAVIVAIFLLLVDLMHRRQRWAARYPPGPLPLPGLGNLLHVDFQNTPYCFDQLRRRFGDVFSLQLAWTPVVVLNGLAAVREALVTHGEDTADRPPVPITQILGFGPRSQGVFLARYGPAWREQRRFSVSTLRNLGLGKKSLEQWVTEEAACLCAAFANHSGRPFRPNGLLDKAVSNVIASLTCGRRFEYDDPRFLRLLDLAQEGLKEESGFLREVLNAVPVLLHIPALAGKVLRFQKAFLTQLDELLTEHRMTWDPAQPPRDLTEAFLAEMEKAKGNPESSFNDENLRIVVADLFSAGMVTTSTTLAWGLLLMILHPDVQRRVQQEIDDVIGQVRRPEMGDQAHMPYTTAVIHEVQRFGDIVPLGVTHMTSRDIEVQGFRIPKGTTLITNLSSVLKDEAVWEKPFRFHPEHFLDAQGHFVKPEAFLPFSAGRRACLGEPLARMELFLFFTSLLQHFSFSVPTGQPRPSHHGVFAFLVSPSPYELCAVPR

Nonstructural protein 1 = Nonstructural protein 1 (Influenza A virus, UniProt Q194T2); format: functional, Influenza A virus (A/California/07/2009(H1N1))
Nonstructural protein 1, sequence (Q194T2 whole entry, the tested form may be a part): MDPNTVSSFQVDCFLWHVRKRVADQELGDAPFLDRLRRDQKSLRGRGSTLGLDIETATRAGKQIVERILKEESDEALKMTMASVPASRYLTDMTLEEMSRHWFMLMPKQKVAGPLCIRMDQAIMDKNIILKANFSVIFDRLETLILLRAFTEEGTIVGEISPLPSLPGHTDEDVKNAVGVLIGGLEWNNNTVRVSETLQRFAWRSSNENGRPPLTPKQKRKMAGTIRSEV

[2] = target: T3, RNA-binding protein pos-1 (Caenorhabditis elegans, UniProt G5EF15); assay: inhibitors of POS-1/mex-3 RNA binding, dose response, biochemical, fluorescence polarization (AID 1964);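 note: purified POS-1 fused to maltose binding protein made in E. coli; potency of compounds blocking POS-1 binding to fluorescent RNA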
T3 sequence (G5EF15 whole entry): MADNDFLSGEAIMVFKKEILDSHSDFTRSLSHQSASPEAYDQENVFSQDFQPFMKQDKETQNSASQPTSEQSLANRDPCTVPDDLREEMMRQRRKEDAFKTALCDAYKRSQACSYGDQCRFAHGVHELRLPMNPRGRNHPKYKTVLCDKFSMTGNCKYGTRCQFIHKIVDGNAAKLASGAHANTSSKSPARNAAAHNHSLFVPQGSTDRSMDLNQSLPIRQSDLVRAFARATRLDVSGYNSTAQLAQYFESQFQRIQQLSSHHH

[3] = target: T4, Zinc finger protein mex-5 (Caenorhabditis elegans, UniProt Q9XUB2); assay: MEX-5/TCR-2 RNA interaction inhibitors, dose response, biochemical, C. elegans, fluorescence polarization (AID 1960)
T4 sequence (Q9XUB2 whole entry): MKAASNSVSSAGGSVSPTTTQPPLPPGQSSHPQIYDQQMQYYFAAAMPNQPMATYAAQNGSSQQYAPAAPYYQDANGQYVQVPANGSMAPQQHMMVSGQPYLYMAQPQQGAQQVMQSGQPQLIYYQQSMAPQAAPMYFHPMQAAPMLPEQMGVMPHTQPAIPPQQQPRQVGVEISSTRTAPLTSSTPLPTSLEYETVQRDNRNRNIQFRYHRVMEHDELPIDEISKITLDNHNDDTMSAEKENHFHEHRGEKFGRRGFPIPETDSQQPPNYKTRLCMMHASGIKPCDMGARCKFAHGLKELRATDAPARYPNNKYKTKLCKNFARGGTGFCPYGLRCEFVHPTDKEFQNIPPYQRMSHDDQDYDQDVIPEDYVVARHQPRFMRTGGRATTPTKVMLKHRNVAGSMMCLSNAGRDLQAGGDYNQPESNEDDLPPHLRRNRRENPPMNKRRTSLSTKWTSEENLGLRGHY

[4] = inhibitors of intracellular T. cruzi replication, confirmation, NIH3T3 host cells, beta-gal luminescence (AID 2044); format: functional, cell-based;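 note: intracellular parasites grown in NIH/3T3 mouse fibroblasts as host cells; luminescent beta-galactosidase reporter signal from transgenic T. cruzi replicating inside host cells; inhibitors lower the luminescence signal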
[5] = cytotoxicity toward NIH3T3 fibroblasts, dose response, counter-screen, cell-based, ATP luminescence, mouse fibroblasts (AID 2010); format: functional;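 note: cells exposed to compound for about 90 hours before reading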
Protein skinhead-1 = target: T5, Protein skinhead-1 (Caenorhabditis elegans, UniProt P34707); format: functional
T5 sequence (P34707 whole entry): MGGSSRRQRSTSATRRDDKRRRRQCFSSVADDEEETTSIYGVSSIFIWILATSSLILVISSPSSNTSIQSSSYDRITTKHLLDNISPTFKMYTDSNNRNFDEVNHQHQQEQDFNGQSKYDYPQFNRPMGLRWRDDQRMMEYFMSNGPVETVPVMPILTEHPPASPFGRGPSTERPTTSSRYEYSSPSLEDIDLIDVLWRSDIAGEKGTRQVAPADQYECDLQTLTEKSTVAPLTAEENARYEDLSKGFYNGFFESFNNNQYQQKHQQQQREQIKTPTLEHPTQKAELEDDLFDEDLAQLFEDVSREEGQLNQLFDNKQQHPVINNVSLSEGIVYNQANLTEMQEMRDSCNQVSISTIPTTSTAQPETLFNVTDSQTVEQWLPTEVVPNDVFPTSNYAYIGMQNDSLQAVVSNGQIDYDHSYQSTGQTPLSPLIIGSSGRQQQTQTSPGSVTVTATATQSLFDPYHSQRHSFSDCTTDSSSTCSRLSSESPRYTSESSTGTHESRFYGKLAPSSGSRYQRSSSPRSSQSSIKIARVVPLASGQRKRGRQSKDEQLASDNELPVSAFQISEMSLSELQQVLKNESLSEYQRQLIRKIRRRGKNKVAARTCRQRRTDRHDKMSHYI

[6] = target: FAD-linked sulfhydryl oxidase ALR (Homo sapiens, UniProt P55789); assay: inhibitors of human ALR sulfhydryl oxidase, dose response, biochemical, H2O2 detection, luminescence, cherry-pick (AID 493248)
FAD-linked sulfhydryl oxidase ALR, sequence (P55789 whole entry): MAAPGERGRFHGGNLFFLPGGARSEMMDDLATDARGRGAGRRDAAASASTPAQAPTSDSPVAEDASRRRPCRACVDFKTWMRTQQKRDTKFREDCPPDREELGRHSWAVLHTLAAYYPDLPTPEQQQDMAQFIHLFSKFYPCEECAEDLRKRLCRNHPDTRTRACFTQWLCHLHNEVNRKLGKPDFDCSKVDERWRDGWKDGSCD

Row | Structure (SMILES) | IC50 [1] | IC50 (Leucine aminopeptidase) | other results
1 | O=C(CCCOc1ccc(Cl)cc1Cl)N1CCc2ccccc2C1 | 7.32 µM (not active) |  | 
2 | O=C(CN1C(=O)c2ccccc2S1(=O)=O)NC1CC2CCC1C2 (stereo not drawn) |  | 75.4 µM (active) | 
3 | O=C(CSc1nc[nH]n1)Nc1nnc(-c2ccccc2)s1 |  | 43.1 µM (active) | 
4 | CCOC(=O)c1c(NC(=O)C2C3CCC(O3)C2C(=O)O)sc(C)c1-c1ccc(F)cc1 (stereo not drawn) |  | 8.78 µM (active) | 
5 | c1nc(NCc2ccc3c(c2)OCO3)n[nH]1 |  | 17.9 µM (active) | 
6 | CN(C)c1ncc(S(=O)(=O)c2ccc(Cl)cc2)c(-c2ccccc2)n1 | 8.73 µM (not active) |  | 
7 | CC(C)c1ccc(CNc2ccc([N+](=O)[O-])cn2)cc1 | 6.03 µM (active) |  | 
8 | Cc1cc(C)nc(NS(=O)(=O)c2ccc(N/C=C3\CCCC3=O)cc2)n1 |  | 56.7 µM (active) | 
9 | COCCSc1nnc(NC(=O)c2cc(C(=O)OC)cc([N+](=O)[O-])c2)s1 |  | 60.2 µM (active) | 
10 | O=C(O)C1CCCCC1C(=O)Nc1cc(Cl)ccc1Cl (stereo not drawn) |  | 25 µM (active) | AC50 (Cytochrome P450 2C19): 25.1 µM (inconclusive)
11 | CC(C)C[C@H](NC(=O)c1[nH]cnc1C(=O)N[C@@H](CCCCNC(=O)OC(C)(C)C)C(=O)OC(C)(C)C)C(=O)OC(C)(C)C | 3.89 µM (not active) |  | 
12 | CCN(CC)c1ccc(NC(=O)CSc2ccsc2[N+](=O)[O-])c(C)c1 |  | 1.9 µM (active) | 
13 | O=C(NCC1COc2ccccc2O1)C1C2C=CC3(CN(Cc4cccs4)C(=O)C13)O2 (stereo not drawn) |  | 7.96 µM (active) | 
14 | N#CCOc1nc(N2CCCC2)nc(N2CCCC2)n1 | 14.3 µM (not active) |  | 
15 | O=C(CN=C(S)N(Cc1ccccc1)Cc1cccs1)NCc1ccc(F)cc1 | 9.61 µM (not active) |  | 
16 | COc1ccc(N2CCN(C(CNC(=O)C3CCCCC3)c3cccnc3)CC2)cc1 (stereo not drawn) |  |  | IC50 (Large T antigen): 27 µM (active); AC50 (Cytochrome P450 2C19): 7.08 µM (inconclusive); AC50 (Cytochrome P450 2D6): 0.355 µM (inconclusive)
17 | Cc1c(NN=C2C(=O)NC(=S)NC2=O)c(=O)n(-c2ccccc2)n1C |  |  | IC50 (Nonstructural protein 1): 2.77 µM (active)
18 | COC(=O)c1c(C)oc(C)c1S(=O)(=O)Nc1ccc(C(C)C)cc1 | 11.4 µM (not active) |  | 
19 | Fc1ccc(CNc2nc(-c3ccccc3)nc3ccccc23)cc1 | 6.57 µM (not active) |  | EC50 [2]: > 300 µM (not active); EC50 [3]: > 300 µM (not active); EC50 [4]: 0.107 µM (active); EC50 [5]: > 30 µM (not active); IC50 (Protein skinhead-1): 32.9 µM (active)
20 | Nc1nnnn1CC(=O)N/N=C/c1cc([N+](=O)[O-])ccc1O |  |  | IC50 (Nonstructural protein 1): 3.13 µM (active)
21 | COc1ccccc1/C=C/C=N/NC(=O)CCC1C(=O)NN=C1C (stereo not drawn) |  | 57.2 µM (active) | 
22 | CCOc1cc(C(=O)N/N=C\c2cn(CC)nc2C)cc(OCC)c1OCC | > 50 µM (not active) |  | 
23 | COc1cc(/C=N/Nc2ccccn2)ccc1O |  |  | IC50 (Large T antigen): 5.41 µM (active)
24 | COc1cc(/C=N/NS(=O)(=O)c2ccc(Br)cc2)ccc1O |  |  | IC50 (Large T antigen): 19.4 µM (active); AC50 [6]: 1.7 µM (active)
